Data from patent US6156798A, “Cyclobutyl-aryloxyarylsulfonylamino hydroxamic acid derivatives” (Pfizer Inc, priority 1999, dated 2000).

Assays:
MMP-1 = molecular target: T1, MMP-1 (Homo sapiens, UniProt P03956); experiment: Inhibition of Human Collagenase (MMP-1); format: biochemical; conditions: human recombinant collagenase, fluorogenic substrate 10 μM, room temperature
T1 sequence (P03956 100-469): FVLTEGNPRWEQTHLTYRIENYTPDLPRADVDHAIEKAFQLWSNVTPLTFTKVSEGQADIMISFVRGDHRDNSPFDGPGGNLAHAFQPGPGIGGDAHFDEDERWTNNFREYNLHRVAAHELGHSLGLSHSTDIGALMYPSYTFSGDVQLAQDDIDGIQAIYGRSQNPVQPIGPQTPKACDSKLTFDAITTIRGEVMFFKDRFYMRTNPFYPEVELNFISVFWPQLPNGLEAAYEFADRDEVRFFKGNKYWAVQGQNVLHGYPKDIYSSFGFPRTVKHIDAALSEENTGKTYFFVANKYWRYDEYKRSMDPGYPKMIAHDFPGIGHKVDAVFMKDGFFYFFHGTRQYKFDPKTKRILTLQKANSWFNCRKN
Experimental: Biological Assay Inhibition of Human Collacienase (MMP-1)
Human recombinant collagenase is activated with trypsin using the following ratio: 10 μg trypsin per 100 μg of collagenase. The trypsin and collagenase are incubated at room temperature for 10 minutes then a five fold excess (50 μg/10 μg trypsin) of soybean trypsin inhibitor is added.
10 mM stock solutions of inhibitors are made up in dimethyl sulfoxide and then dilute using the following Scheme:
Twenty-five microliters of each concentration is then added in triplicate to appropriate wells of a 96 well microfluor plate. The final concentration of inhibitor will be a 1:4 dilution after addition of enzyme and substrate. Positive controls (enzyme, no inhibitor) are set up in wells D1-D6 and blanks (no enzyme, no inhibitors) are set in wells D7-D12.
Collagenase is diluted to 400 ng/ml and 25 μl is then added to appropriate wells of the microfluor plate. Final concentration of collagenase in the assay is 100 ng/ml. […]
Fluorescence readings (360 nm excitation, 460 nm emission) were taken at time 0 and then at 20 minute intervals. […]
Fluorescence vs time is then plotted for both the blank and collagenase containing samples (data from triplicate determinations is averaged). […] Data is plotted as inhibitor concentration vs % control (inhibitor fluorescence divided by fluorescence of collagenase alone×100). […]

MMP-13 = MMP-13 (Homo sapiens, UniProt P45452); experiment: Inhibition of MMP-13; format: biochemical; conditions: human recombinant MMP-13, fluorogenic substrate 10 μM
Experimental: Human recombinant MMP-13 is activated with 2 mM APMA (p-aminophenyl mercuric acetate) for 1.5 hours, at 37° C. and is diluted to […] in assay buffer (50 mM Tris, pH 7.5, 200 mM sodium chloride, 5 mM calcium chloride, 20 μM zinc chloride, 0.02% brij). Twenty-five microliters of diluted enzyme is added per well of a 96 well microfluor plate. The enzyme is then diluted in a 1:4 ratio in the assay by the addition of inhibitor and substrate to give a final concentration in the assay of […].
10 mM stock solutions of inhibitors are made up in dimethyl sulfoxide and then diluted in assay buffer as per the inhibitor dilution scheme for inhibition of human collagenase (MMP-1): Twenty-five microliters of each concentration is added in triplicate to the microfluor plate. The final concentrations in the assay are 30 μM, 3 μM, 0.3 μM, and 0.03 μM.
Substrate (Dnp-Pro-Cha-Gly-Cys(Me)-His-Ala-Lys(NMA)-NH2) is prepared as for inhibition of human collagenase (MMP-1) and […] is added to each well to give a final assay concentration of 10 μM. Fluorescence readings (360 nm excitation; 450 emission) are taken at time 0 and every 5 minutes for 1 hour.
Positive controls consist of enzyme and substrate with no inhibitor and blanks consist of substrate only.
IC50 's are determined as per inhibition of human collagenase (MMP-1). […]

Work on CCOC(=O)CCN(C1(C(=O)NO)CCC1)S(=O)(=O)c1ccc(Oc2ccc(F)cc2)cc1 [1 (R^1 = ethyl), Ethyl 3-[[4-(4-fluorophenoxy)phenylsulfonyl]-1-[(N-hydroxycarbamoyl)cyclobutyl]amino]propionate] yielded an IC50 (MMP-1) of 18 nM and an IC50 (MMP-13) of 0.6 nM.

In the case of O=C(O)CCN(C1(C(=O)NO)CCC1)S(=O)(=O)c1ccc(Oc2ccc(F)cc2)cc1 [1 (R^1 = H), 3-[[4-(4-Fluorophenoxy)phenylsulfonyl]-1[(N-hydroxycarbamoyl)cyclobutyl]amino]propionic acid], the IC50 (MMP-1) is reported as 90 nM and the IC50 (MMP-13) is reported as 0.6 nM.
